# Experimental data from patent EP4603105A1, “PHARMACEUTICAL COMPOSITION CONTAINING CYCLIC COMPOUND HAVING SELECTIVE KRAS INHIBITORY EFFECT AGAINST HRAS AND NRAS” (CHUGAI SEIYAKU KABUSHIKI KAISHA, priority 2022, dated 2024).
# Tests used:
# [1] = test system: human lung cancer strain NCI-H441; assay type: cell-based
# Summary of the method: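 Step one: dispense the test compound in serial DMSO dilutions. Step three: add the reagent and measure […].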
# [2] = target: GDP-bound KRAS wild-type protein (Homo sapiens, UniProt P01116); assay: Binding to KRAS by surface plasmon resonance (SPR), dissociation constant KD; details: 1:1 binding model
# Sequence of GDP-bound KRAS wild-type protein (P01116 1-188 isoform P01116-2): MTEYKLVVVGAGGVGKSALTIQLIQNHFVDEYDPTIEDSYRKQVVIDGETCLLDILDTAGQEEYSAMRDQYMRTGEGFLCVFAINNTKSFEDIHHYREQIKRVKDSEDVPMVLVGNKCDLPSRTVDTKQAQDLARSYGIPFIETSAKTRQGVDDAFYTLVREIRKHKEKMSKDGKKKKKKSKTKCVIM
# Summary of the method: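 Each cycle, GDP-bound biotin-Avi RAS was captured (~100–300 RU), compound concentrations were injected low to high for 75 s each at 100 µL/min, then the chip was regenerated. Buffer: HBS pH 7.4, 10 mM MgCl2, 10 µM GDP, 1 mM DTT, 4% DMSO; 30°C. KD from a 1:1 binding model.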
# [3] = target: GDP-bound NRAS wild-type protein (Homo sapiens, UniProt P01111); assay: Binding to NRAS by surface plasmon resonance (SPR), KD and KD ratio to KRAS; details: ratio of KD for GDP-bound NRAS wild-type protein to KD for KRAS
# Sequence of GDP-bound NRAS wild-type protein (P01111 whole entry): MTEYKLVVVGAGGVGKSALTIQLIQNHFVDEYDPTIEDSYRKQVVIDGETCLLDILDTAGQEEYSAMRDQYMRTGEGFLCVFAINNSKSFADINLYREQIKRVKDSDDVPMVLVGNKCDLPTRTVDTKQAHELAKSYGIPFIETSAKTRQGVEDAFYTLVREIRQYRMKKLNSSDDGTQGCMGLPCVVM
# Summary of the method: (§1)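 Biotinylated GDP-bound RAS was captured at about 100–300 RU. Running buffer: HBS pH 7.4, 10 mM MgCl2, 10 µM GDP, 1 mM DTT, 0.01% Tween 20, 4% DMSO.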
# [4] = target: HRAS wild-type protein (Homo sapiens, UniProt P01112); assay: Binding to HRAS by surface plasmon resonance (SPR), KD and KD ratio to KRAS; details: ratio of KD for HRAS wild-type protein to KD for KRAS
# Sequence of HRAS wild-type protein (P01112 whole entry): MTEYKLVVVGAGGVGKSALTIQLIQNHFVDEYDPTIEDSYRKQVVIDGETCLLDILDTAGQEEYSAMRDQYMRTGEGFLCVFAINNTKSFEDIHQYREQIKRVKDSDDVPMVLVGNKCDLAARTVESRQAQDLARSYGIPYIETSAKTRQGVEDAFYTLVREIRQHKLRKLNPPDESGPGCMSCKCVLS
# Summary of the method: as §1
smiles,measurement,setting,value
CCO[C@@H]1C[C@H]2C(=O)NC3(CC(C)(C)C3)C(=O)N(C)[C@@H](C3CCCC3)C(=O)N(C)[C@H](C(=O)N(C)C)CC(=O)N(C)[C@@H]([C@H](C)OC)C(=O)N[C@@H]([C@@H](C)CC)C(=O)N(C3CC3)CC(=O)N(C)[C@H]3C/C=C\CCN(C3=O)[C@@H](Cc3ccc(C)cc3)C(=O)N(C)CC(=O)N[C@@H](CCc3cc(F)c(C(F)(F)F)c(F)c3)C(=O)N2C1 [PP3193],IC50,[1],21.1 nM
same,Kd,[2],0.35 nM
same,NRAS /KRAS,[3],A (a compound having 10 or more and less than 20 is denoted as A)
same,HRAS /KRAS,[4],A (a compound having 10 or more and less than 20 is denoted as A)
CCO[C@@H]1C[C@H]2C(=O)NC3(CC(C)(C)C3)C(=O)N(C)[C@@H](C3CCCC3)C(=O)N(C)[C@H](C(=O)N(C)C)CC(=O)N(C)[C@@H]([C@H](C)OC)C(=O)N[C@@H]([C@@H](C)CC)C(=O)N(C3CC3)CC(=O)N(C)[C@H]3C/C=C\CCN(C3=O)[C@@H](Cc3ccc(C)cc3)C(=O)N(C)CC(=O)N[C@@H](CCc3ccc(C(F)(F)F)c(Cl)c3)C(=O)N2C1 [PP3195],IC50,[1],22.2 nM
same,Kd,[2],0.41 nM
same,NRAS /KRAS,[3],A (a compound having 10 or more and less than 20 is denoted as A)
same,HRAS /KRAS,[4],A (a compound having 10 or more and less than 20 is denoted as A)
CCO[C@@H]1C[C@H]2C(=O)NC3(CC(C)(C)C3)C(=O)N(C)[C@@H](C3CCCC3)C(=O)N(C)[C@H](C(=O)N(C)C)CC(=O)N(C)[C@@H]([C@H](C)OC)C(=O)N[C@@H]([C@@H](C)CC)C(=O)N3CCC[C@H]3C(=O)N(C)[C@H]3C/C=C\CCN(C3=O)[C@@H](Cc3ccc(C)cc3)C(=O)N(C)CC(=O)N[C@@H](CCc3ccc(C(F)(F)F)c(OC)c3)C(=O)N2C1 [PP3197],IC50,[1],130 nM
same,Kd,[2],1.4 nM
same,NRAS /KRAS,[3],A (a compound having 10 or more and less than 20 is denoted as A)
same,HRAS /KRAS,[4],A (a compound having 10 or more and less than 20 is denoted as A)
CCO[C@@H]1C[C@H]2C(=O)NC3(CC(C)(C)C3)C(=O)N(C)[C@@H](C3CCCC3)C(=O)N(C)[C@H](C(=O)N(C)C)CC(=O)N(C)[C@@H]([C@H](C)OC)C(=O)N[C@@H]([C@@H](C)CC)C(=O)N3CCC[C@H]3C(=O)N(C)[C@H]3C/C=C\CCN(C3=O)[C@@H](Cc3ccc(C)cc3)C(=O)N(C)CC(=O)N[C@@H](CCc3cc(F)c(C(F)(F)F)c(F)c3)C(=O)N2C1 [PP3199],IC50,[1],49.6 nM
same,Kd,[2],0.8 nM
same,NRAS /KRAS,[3],A (a compound having 10 or more and less than 20 is denoted as A)
same,HRAS /KRAS,[4],A (a compound having 10 or more and less than 20 is denoted as A)
CCO[C@@H]1C[C@H]2C(=O)NC3(CC(C)(C)C3)C(=O)N(C)[C@@H](C3CCCC3)C(=O)N(C)[C@H](C(=O)N(C)C)CC(=O)N(C)[C@@H]([C@@H](C)OC)C(=O)N[C@@H]([C@@H](C)CC)C(=O)N(C3CC3)CC(=O)N(C)[C@H]3C/C=C\CCN(C3=O)[C@@H](Cc3ccc(C(F)(F)F)cc3)C(=O)N(C)CC(=O)N[C@@H](CCc3ccc(C(F)(F)F)c(OC)c3)C(=O)N2C1 [PP3200],IC50,[1],7.1 nM
same,Kd,[2],0.21 nM
same,NRAS /KRAS,[3],A (a compound having 10 or more and less than 20 is denoted as A)
same,HRAS /KRAS,[4],A (a compound having 10 or more and less than 20 is denoted as A)
CCO[C@@H]1C[C@H]2C(=O)NC3(CC(C)(C)C3)C(=O)N(C)[C@@H](C3CCCC3)C(=O)N(C)[C@H](C(=O)N(C)C)CC(=O)N(C)[C@@H]([C@@H](C)OC)C(=O)N[C@@H]([C@@H](C)CC)C(=O)N3CCC[C@H]3C(=O)N(C)[C@H]3C/C=C\CCN(C3=O)[C@@H](Cc3ccc(C(F)(F)F)cc3)C(=O)N(C)CC(=O)N[C@@H](CCc3ccc(C(F)(F)F)c(OC)c3)C(=O)N2C1 [PP3204],IC50,[1],29.2 nM
same,Kd,[2],0.4 nM
same,NRAS /KRAS,[3],A (a compound having 10 or more and less than 20 is denoted as A)
same,HRAS /KRAS,[4],A (a compound having 10 or more and less than 20 is denoted as A)
CCO[C@@H]1C[C@H]2C(=O)NC3(CC(C)(C)C3)C(=O)N(C)[C@@H](C3CCCC3)C(=O)N(C)[C@H](C(=O)N(C)C)CC(=O)N(C)[C@@H]([C@@H](C)OC)C(=O)N[C@@H]([C@@H](C)CC)C(=O)N3CCC[C@H]3C(=O)N(C)[C@H]3C/C=C\CCN(C3=O)[C@@H](Cc3ccc(C(F)(F)F)cc3)C(=O)N(C)CC(=O)N[C@@H](CCc3cc(F)c(C(F)(F)F)c(F)c3)C(=O)N2C1 [PP3205],IC50,[1],18.4 nM
same,Kd,[2],0.39 nM
same,NRAS /KRAS,[3],A (a compound having 10 or more and less than 20 is denoted as A)
same,HRAS /KRAS,[4],A (a compound having 10 or more and less than 20 is denoted as A)
CCO[C@@H]1C[C@H]2C(=O)NC3(CC(C)(C)C3)C(=O)N(C)[C@@H](C3CCCC3)C(=O)N(C)[C@H](C(=O)N(C)C)CC(=O)N(C)[C@@H]([C@@H](C)OC)C(=O)N[C@@H]([C@@H](C)CC)C(=O)N3CCC[C@H]3C(=O)N(C)[C@H]3C/C=C\CCN(C3=O)[C@@H](Cc3ccc(C(F)(F)F)cc3)C(=O)N(C)CC(=O)N[C@@H](CCc3ccc(C(F)(F)F)c(Cl)c3)C(=O)N2C1 [PP3206],IC50,[1],19.2 nM
same,Kd,[2],0.43 nM
same,NRAS /KRAS,[3],A (a compound having 10 or more and less than 20 is denoted as A)
same,HRAS /KRAS,[4],A (a compound having 10 or more and less than 20 is denoted as A)
CCO[C@@H]1C[C@H]2C(=O)NC3(CC(C)(C)C3)C(=O)N(C)[C@@H](C3CCCC3)C(=O)N(C)[C@H](C(=O)N(C)C)CC(=O)N(C)[C@@H]([C@@H](C)OC)C(=O)N[C@@H]([C@@H](C)CC)C(=O)N(C)CC(=O)N(C)[C@H]3C/C=C\CCN(C3=O)[C@@H](Cc3ccc(C)cc3)C(=O)N(C)CC(=O)N[C@@H](CCc3ccc(C(F)(F)F)c(OC)c3)C(=O)N2C1 [PP3207],IC50,[1],5.6 nM
same,Kd,[2],0.059 nM
same,NRAS /KRAS,[3],A (a compound having 10 or more and less than 20 is denoted as A)
same,HRAS /KRAS,[4],A (a compound having 10 or more and less than 20 is denoted as A)
CCO[C@@H]1C[C@H]2C(=O)NC3(CC(C)(C)C3)C(=O)N(C)[C@@H](C3CCCC3)C(=O)N(C)[C@H](C(=O)N(C)C)CC(=O)N(C)[C@@H]([C@@H](C)OC)C(=O)N[C@@H]([C@@H](C)CC)C(=O)N(C)CC(=O)N(C)[C@H]3C/C=C\CCN(C3=O)[C@@H](Cc3ccc(C)cc3)C(=O)N(C)CC(=O)N[C@@H](CCc3cc(F)c(C(F)(F)F)c(F)c3)C(=O)N2C1 [PP3208],IC50,[1],2.8 nM
same,Kd,[2],0.076 nM
same,NRAS /KRAS,[3],A (a compound having 10 or more and less than 20 is denoted as A)
same,HRAS /KRAS,[4],A (a compound having 10 or more and less than 20 is denoted as A)
CCO[C@@H]1C[C@H]2C(=O)NC3(CC(C)(C)C3)C(=O)N(C)[C@@H](C3CCCC3)C(=O)N(C)[C@H](C(=O)N(C)C)CC(=O)N(C)[C@@H]([C@@H](C)OC)C(=O)N[C@@H]([C@@H](C)CC)C(=O)N(C)CC(=O)N(C)[C@H]3C/C=C\CCN(C3=O)[C@@H](Cc3ccc(C)cc3)C(=O)N(C)CC(=O)N[C@@H](CCc3ccc(C(F)(F)F)c(Cl)c3)C(=O)N2C1 [PP3209],IC50,[1],5.5 nM
same,Kd,[2],0.1 nM
same,NRAS /KRAS,[3],A (a compound having 10 or more and less than 20 is denoted as A)
same,HRAS /KRAS,[4],B (a compound having 3 or more and less than 10 is denoted as B)
CCO[C@@H]1C[C@H]2C(=O)NC3(CC(C)(C)C3)C(=O)N(C)[C@@H](C3CCCC3)C(=O)N(C)[C@H](C(=O)N(C)C)CC(=O)N(C)[C@@H]([C@@H](C)OC)C(=O)N[C@@H]([C@@H](C)CC)C(=O)N(C3CC3)CC(=O)N(C)[C@H]3C/C=C\CCN(C3=O)[C@@H](Cc3ccc(C)cc3)C(=O)N(C)CC(=O)N[C@@H](CCc3ccc(C(F)(F)F)c(OC)c3)C(=O)N2C1 [PP3210],IC50,[1],19.1 nM
same,Kd,[2],0.53 nM
same,NRAS /KRAS,[3],A (a compound having 10 or more and less than 20 is denoted as A)
same,HRAS /KRAS,[4],B (a compound having 3 or more and less than 10 is denoted as B)
CCO[C@@H]1C[C@H]2C(=O)NC3(CC(C)(C)C3)C(=O)N(C)[C@@H](C3CCCC3)C(=O)N(C)[C@H](C(=O)N(C)C)CC(=O)N(C)[C@@H]([C@@H](C)OC)C(=O)N[C@@H]([C@@H](C)CC)C(=O)N(C3CC3)CC(=O)N(C)[C@H]3C/C=C\CCN(C3=O)[C@@H](Cc3ccc(C)cc3)C(=O)N(C)CC(=O)N[C@@H](CCc3cc(F)c(C(F)(F)F)c(F)c3)C(=O)N2C1 [PP3211],IC50,[1],19.4 nM
same,Kd,[2],0.33 nM
same,NRAS /KRAS,[3],A (a compound having 10 or more and less than 20 is denoted as A)
same,HRAS /KRAS,[4],A (a compound having 10 or more and less than 20 is denoted as A)
CCO[C@@H]1C[C@H]2C(=O)NC3(CC(C)(C)C3)C(=O)N(C)[C@@H](C3CCCC3)C(=O)N(C)[C@H](C(=O)N(C)C)CC(=O)N(C)[C@@H]([C@@H](C)OC)C(=O)N[C@@H]([C@@H](C)CC)C(=O)N(C3CC3)CC(=O)N(C)[C@H]3C/C=C\CCN(C3=O)[C@@H](Cc3ccc(C)cc3)C(=O)N(C)CC(=O)N[C@@H](CCc3ccc(C(F)(F)F)c(Cl)c3)C(=O)N2C1 [PP3212],IC50,[1],16.6 nM
same,Kd,[2],0.3 nM
same,NRAS /KRAS,[3],A (a compound having 10 or more and less than 20 is denoted as A)
same,HRAS /KRAS,[4],A (a compound having 10 or more and less than 20 is denoted as A)
